The test relates to 3T3-L1 adipocytes. Description: GSV-PM fusion in live adipocytes (IRAP-pHluorin, TIRF microscopy). Type of test: cell-based, mouse. The text has this:
FIG. 3, panels A-C, show knockdown of CDP138 in live 3T3-L1 adipocytes inhibits insulin-stimulated membrane fusion between GLUT4 storage vesicles (GSV) and the PM, but not GLUT4-EGFP trafficking to the TIRF zone. (A): Schematic illustration of the molecular probes and TIRF microcopy-based live cell assays for GLUT4 trafficking and GSV-PM fusion. (B) and (C): The effect of CDP138 knockdown on insulin-stimulated IRAP-pHluorin insertion into the PM (B), and accumulation of GLUT4-EGFP in the TIRF zone (C). Adipocytes (day 4) were transfected by electroporation with plasmid DNA encoding IRAP-pHluorin or GLUT4-EGFP, together with either the scrambled siRNA or smartPool siRNA against mouse 5730419I09Rik. Cells were reseeded on glass-bottomed dishes for 72 hrs, serum starved for 2 hr then stimulated with 100 nM insulin for 30 min. Analyses were performed in a cell warmer adapted for a Nikon TiE with fully motorized combined dual laser (488 and 561 nm). Images were acquired every 3 min immediately after addition of insulin and analyzed as described in the Supplementary Experimental Procedures. Perfect focus system and multiple points capture program (NIS Element) were used to acquire images from multiple positively transfected cells at each time point. […]
Total Internal Reflection Fluorescence (TIRF) Microscopy: Nikon (Melville, N.Y.) TI-TIRF-E, which was based on the objective lens method, was used to perform all the TIRF experiments. […] Positively transfected adipocytes were identified, and the insulin-stimulated IRAP vesicle-PM fusion events or GLUT4-EGFP trafficking to the TIRF zone were recorded every 3 min for a 30 min period using Nikon Eclipse-Ti TIRF microscope. […]
Image Analysis and Quantification: TIRF and wide field fluorescence microscopy were performed using a Nikon inverted microscope (Melville, N.Y.) with a cooled charge-coupled device camera. […]

1 substance from patent US20120204273A1, “COMPOSITIONS RELATING TO A PHOSPHOPROTEIN AND METHODS OF USE” (SANFORD-BURNHAM MEDICAL RESEARCH INSTITUTE, priority 2010, published 2012) can be followed below.

insulin: the “stimulation of GSV fusion with the PM in the TIRF zone” value is on record as “significantly stimulates”.
